# Reference: patent US20030224942A1, “Alkylamino-1,3,5-triazines, processes for their preparation and their use as herbicides and plant growth regulators” (priority 2001, published 2003)
# What was measured:
# [1] = tested on: Chenopodium spp., Papaver spp., Polygonum spp., Veronica spp. or Viola spp.; assay: Post-emergence effect on weeds (greenhouse pot test, visual scoring); format: in vivo, monocotyledonous and dicotyledonous weeds; conditions: treated at three-leaf stage; visual scoring after about 3 to 4 weeks; application rate of 0.5 kg and less of active substance per hectare
# [2] = tested on: Cyperus spp., Echinochloa spp., Digitaria spp., Sagitaria spp. and Scirpus spp.; assay: Action on harmful plants in rice (paddy rice conditions, visual scoring); format: in vivo, typical rice weeds (gramineous and broad-leaved); conditions: applied into the dammed water, visual scoring about three weeks after application
# Procedure, shortened: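 Under paddy conditions with 2-3 cm dammed water, transplanted and sown rice plus weeds were treated at three-leaf stage (E. crus-galli at 1.5 leaves). Pots stayed in greenhouse under optimum growth conditions for the test period, with visual assessment of damage.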
Structure (SMILES),herbicidal activity post-emergence against harmful plants [1],herbicidal activity against harmful plants which are typical for rice crops [2]
CC(O)C#Cc1ccc(C(C)Nc2nc(N)nc(C(C)F)n2)cc1 (stereo not shown) [Product P22.1601],very good herbicidal activity,very good herbicidal activity
CC#Cc1cc(C(Nc2nc(N)nc(C(C)(C)F)n2)C2CC2)ccc1F (stereo not shown) [Product P19.384],very good herbicidal activity,very good herbicidal activity
CC(Nc1nc(N)nc(C(C)(C)F)n1)c1ccc(C(F)=C(F)F)cc1 (stereo not shown) [Product P17.1568],very good herbicidal activity,very good herbicidal activity
C#Cc1ccc(C(C)Nc2nc(C)nc(N)n2)cc1 (stereo not shown) [Product P2.1580],very good herbicidal activity,very good herbicidal activity
CC(C)(F)c1nc(N)nc(NC(c2cccc(C(F)=C(F)F)c2)C2CC2)n1 (stereo not shown) [Product P19.1567],very good herbicidal activity,very good herbicidal activity
CC#Cc1cccc(C(Nc2nc(N)nc(C(F)CC)n2)C2CC2)c1 (stereo not shown) [Product P29.1582],very good herbicidal activity,very good herbicidal activity
CC(F)C#Cc1ccc(C(C)Nc2nc(N)nc(C(C)(C)F)n2)cc1 (stereo not shown) [Product P17.1598],very good herbicidal activity,very good herbicidal activity
CC#Cc1cc(C(Nc2nc(N)nc(C(F)CC)n2)C2CC2)ccc1F (stereo not shown) [Product P29.384],very good herbicidal activity,very good herbicidal activity
CCC(F)c1nc(N)nc(NCc2ccc(C(F)=C(F)F)cc2)n1 (stereo not shown) [Product P26.1568],very good herbicidal activity,very good herbicidal activity
C#Cc1ccc(C(C)Nc2nc(N)nc(C(F)CC)n2)cc1C (stereo not shown) [Product P27.335],very good herbicidal activity,very good herbicidal activity
C#Cc1cccc(C(Nc2nc(N)nc(C(C)F)n2)C2CC2)c1 (stereo not shown) [Product P24.1579],very good herbicidal activity,very good herbicidal activity
CC#Cc1c(F)cc(C(C)Nc2nc(C)nc(N)n2)cc1F (stereo not shown) [Product P2.428],very good herbicidal activity,very good herbicidal activity
C#Cc1cccc(CNc2nc(N)nc(C(F)CC)n2)c1 (stereo not shown) [Product P26.1579],very good herbicidal activity,very good herbicidal activity
CC(F)C#Cc1cccc(C(C)Nc2nc(N)nc(C(C)F)n2)c1 (stereo not shown) [Product P22.1597],very good herbicidal activity,very good herbicidal activity
C=C=Cc1c(F)cc(C(C)Nc2nc(N)nc(C(C)F)n2)cc1F (stereo not shown) [Product P22.656],very good herbicidal activity,very good herbicidal activity
CCC(F)c1nc(N)nc(NC(C)c2cc(F)c(C3CC3)c(F)c2)n1 (stereo not shown) [Product P27.960],very good herbicidal activity,very good herbicidal activity
CC#Cc1cccc(C(C)Nc2nc(N)nc(C(C)(C)F)n2)c1 (stereo not shown) [Product P17.1582],very good herbicidal activity,very good herbicidal activity
CCCCC#Cc1cccc(C(C)Nc2nc(N)nc(C(C)(C)F)n2)c1 (stereo not shown) [Product P17.1594],very good herbicidal activity,very good herbicidal activity
C#Cc1c(F)cc(CNc2nc(N)nc(C(C)F)n2)cc1F (stereo not shown) [Product P21.352],very good herbicidal activity,very good herbicidal activity

Structure (SMILES),herbicidal activity post-emergence against harmful plants [1],herbicidal activity against harmful plants which are typical for rice crops [2]
Cc1nc(N)nc(NC(c2ccc(F)c(C(F)=C(F)F)c2)C2CC2)n1 (stereo not shown) [Product P4.5],very good herbicidal activity,very good herbicidal activity
CC#Cc1ccc(C(C)Nc2nc(N)nc(C(C)F)n2)cc1 (stereo not shown) [Product P22.1583],very good herbicidal activity,very good herbicidal activity
CC#Cc1ccc(CNc2nc(C)nc(N)n2)cc1 [Product P1.1583],very good herbicidal activity,very good herbicidal activity
C#Cc1c(F)cc(C(Nc2nc(N)nc(CC)n2)C2CC2)cc1F (stereo not shown) [Product P9.352],very good herbicidal activity,very good herbicidal activity
Cc1nc(N)nc(NCc2ccc(C(F)=C(F)F)cc2)n1 [Product P1.1568],very good herbicidal activity,very good herbicidal activity
CC#Cc1ccc(C(Nc2nc(N)nc(C(C)C)n2)C2CC2)cc1 (stereo not shown) [Product P14.1583],very good herbicidal activity,very good herbicidal activity
Cc1nc(N)nc(NC(C)c2ccc(C(F)=C(F)F)cc2)n1 (stereo not shown) [Product P2.1568],very good herbicidal activity,very good herbicidal activity
Cc1nc(N)nc(NC(C)c2cc(F)c(C(F)=C(F)F)c(F)c2)n1 (stereo not shown) [Product P2.49],very good herbicidal activity,very good herbicidal activity
CC#Cc1cc(C(Nc2nc(C)nc(N)n2)C2CC2)ccc1F (stereo not shown) [Product P4.384],very good herbicidal activity,very good herbicidal activity
Cc1nc(N)nc(NC(c2cccc(C3CC3)c2)C2CC2)n1 (stereo not shown) [Product P4.1603],very good herbicidal activity,very good herbicidal activity
C#Cc1cc(CNc2nc(N)nc(C(C)F)n2)ccc1F (stereo not shown) [Product P21.309],very good herbicidal activity,very good herbicidal activity
C#Cc1cc(C(Nc2nc(C)nc(N)n2)C2CC2)ccc1F (stereo not shown) [Product P4.309],very good herbicidal activity,very good herbicidal activity
C#Cc1ccc(C(Nc2nc(C)nc(N)n2)C2CC2)cc1 (stereo not shown) [Product P4.1580],very good herbicidal activity,very good herbicidal activity
C#Cc1ccc(C(C)Nc2nc(N)nc(C(C)C)n2)cc1C (stereo not shown) [Product P12.335],very good herbicidal activity,very good herbicidal activity
CC#Cc1cc(C(C)Nc2nc(N)nc(C(C)F)n2)ccc1F (stereo not shown) [Product P22.384],very good herbicidal activity,very good herbicidal activity
CC(F)c1nc(N)nc(NC(c2ccc(C(F)=C(F)F)cc2)C2CC2)n1 (stereo not shown) [Product P24.1568],very good herbicidal activity,very good herbicidal activity
C#Cc1ccc(C(C)Nc2nc(N)nc(C(C)F)n2)cc1C (stereo not shown) [Product P22.335],very good herbicidal activity,very good herbicidal activity
CCc1nc(N)nc(NCc2ccc(F)c(C3CC3)c2)n1 [Product P6.916],very good herbicidal activity,very good herbicidal activity
Cc1nc(N)nc(NC(c2ccc(C(F)=C(F)F)cc2)C2CC2)n1 (stereo not shown) [Product P4.1568],very good herbicidal activity,very good herbicidal activity
